Test results reported in patent publication US12171755B2, “PAPD5 inhibitors and methods of use thereof” (Children's Medical Center Corporation, priority 2017, dated 2024).

Target: T1, PAPD5 (Homo sapiens, UniProt Q8NDF8)
T1 construct: made in house
Experiment: High-throughput luminescence (KinaseGlo) RNA polyadenylation assay, ATP utilization by recombinant PAPD5
Format: biochemical
Conditions: for Fold-change determined at compound concentration 33 μM / Fold-change determined at compound concentration 100 μM / Fold-change determined at compound concentration 10 μM: Table 4 (entries of Table 5), ratio of luminescence with inhibitor to DMSO; for Fold-change determined at compound concentration 33 μM: 33 μM compound; for Fold-change determined at compound concentration 100 μM: higher = higher inhibition; for Fold-change determined at compound concentration 10 μM: 10 μM compound
Procedure, shortened: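 Values are ratios of inhibitor to DMSO luminescence, so larger numbers mean less ATP consumed. Screening was run in duplicate with a 2 h room-temperature reaction of recombinant PAPD5, ATP and oligo RNA substrate plus compound. Residual ATP was detected after a 10 min KinaseGlo step.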

T1 sequence (Q8NDF8 68-698 isoform Q8NDF8-5): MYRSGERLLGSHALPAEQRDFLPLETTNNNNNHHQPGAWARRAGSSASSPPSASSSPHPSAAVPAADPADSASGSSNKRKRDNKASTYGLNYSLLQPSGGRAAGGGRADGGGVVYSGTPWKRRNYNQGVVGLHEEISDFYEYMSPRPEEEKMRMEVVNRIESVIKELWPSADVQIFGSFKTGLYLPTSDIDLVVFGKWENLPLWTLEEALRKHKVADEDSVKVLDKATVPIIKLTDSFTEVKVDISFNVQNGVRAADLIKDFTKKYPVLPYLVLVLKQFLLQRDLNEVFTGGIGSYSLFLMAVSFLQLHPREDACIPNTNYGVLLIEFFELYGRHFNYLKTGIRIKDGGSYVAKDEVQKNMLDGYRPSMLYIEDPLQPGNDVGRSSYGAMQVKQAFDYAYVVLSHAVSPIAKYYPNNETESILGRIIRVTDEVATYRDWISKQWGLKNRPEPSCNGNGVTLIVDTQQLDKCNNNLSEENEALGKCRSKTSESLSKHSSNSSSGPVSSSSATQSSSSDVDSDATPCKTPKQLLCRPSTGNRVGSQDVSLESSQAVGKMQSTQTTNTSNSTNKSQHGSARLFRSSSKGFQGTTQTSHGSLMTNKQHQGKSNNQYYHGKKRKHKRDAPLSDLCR

| SMILES | Fold-change determined at compound concentration 33 μM | Fold-change determined at compound concentration 100 μM (100 μM compound) | Fold-change determined at compound concentration 10 μM | fold change at 100 μM concentration in the assay (100 μM compound) |
| --- | --- | --- | --- | --- |
| Cc1csc(-c2cc(S(=O)(=O)Nc3cc(C)nc4ccccc34)c(C)s2)n1 [Entry 29, 2-methyl-N-(2-methylquinolin-4-yl)-5-(4-methyl-1,3-thiazol-2-yl)thiophene-3-sulfonamide] | 1.073 | 1.22 | – | – |
| N#CC1=C2SCN(C3CCCCC3)CN2C(=O)CC1c1ccc(Br)cc1 (stereo not drawn) [Entry 196, 8-(4-bromophenyl)-3-cyclohexyl-6-oxo-3,4,7,8-tetrahydro-2H,6H-pyrido[2,1-b][1,3,5]thiadiazine-9-carbonitrile] | 1.09 | 1.326 | – | – |
| Cc1ccc(-c2n[nH]c(=O)c3c2CCCC3)cc1S(=O)(=O)Nc1ccc(S(N)(=O)=O)cc1 [Entry 208, N-[4-(aminosulfonyl)phenyl]-2-methyl-5-(4-oxo-3,4,5,6,7,8-hexahydrophthalazin-1-yl)benzenesulfonamide] | 1.211 | 1.492 | – | – |
| O=C(O)C1Nc2ccc(Cl)cc2C2C=CCC12 (stereo not drawn) [Entry 98, 8-Chloro-3a,4,5,9b-tetrahydro-3H-cyclopenta[c]quinoline-4-carboxylic acid] | 1.97 | 2.765 | – | – |
| O=C(O)c1ccc(N2C(=O)c3[nH]nc(-c4ccccc4)c3C2c2cccc(O)c2)cc1 (stereo not drawn) [Entry 242, 4-[4-(3-hydroxyphenyl)-6-oxo-3-phenyl-1,4-dihydropyrrolo[3,4-c]pyrazol-5-yl]benzoic acid] | 1.068 | 1.283 | – | – |
| CCOC(=O)c1c(C)nc2n(C)c3ccccc3n12 [Entry 228, ethyl 2,9-dimethyl-9H-benzo[d]imidazo[1,2-a]imidazole-3-carboxylate] | 1.146 | 1.3 | – | – |
| NC(=O)C1CCN(c2ncnc3sc4c(c23)CCCC4)CC1 [Entry 43, 1-(5,6,7,8-tetrahydro[1]benzothieno[2,3-d]pyrimidin-4-yl)piperidine-4-carboxamide] | 1.648 | 2.294 | 1.292 | – |
| O=C(NCc1ccncc1)C1CCCN(c2ncnc3c2oc2ccccc23)C1 (stereo not drawn) [Entry 36, 1-([1]benzofuro[3,2-d]pyrimidin-4-yl)-N-(pyridin-4-ylmethyl)piperidine-3-carboxamide] | 1.096 | 1.239 | – | – |
| Cc1ccc(C(=O)Nc2c(-c3ccccc3)nc3ccccn23)cc1 [Entry 190, 4-methyl-N-(2-phenylimidazo[1,2-a]pyridin-3-yl)benzamide] | 1.309 | 1.482 | 1.214 | – |
| COc1ccc(S(=O)(=O)Nc2cc3c(cc2Oc2ccccc2)n(C)c(=O)c(=O)n3C)cc1 [Entry 136, N-(1,4-dimethyl-2,3-dioxo-7-phenoxy-1,2,3,4-tetrahydroquinoxalin-6-yl)-4-methoxybenzenesulfonamide] | 1.082 | 1.303 | – | – |
| COc1cccc(CNC(=O)Nc2cn(CC(C)C)c(=O)c3ccccc23)c1 [Entry 60, 1-[(3-methoxyphenyl)methyl]-3-[2-(2-methylpropyl)-1-oxoisoquinolin-4-yl]urea] | 1.088 | 1.621 | – | – |
| COc1cc(Cl)c(NS(=O)(=O)c2cc3[nH]c(=O)c(=O)[nH]c3cc2C)c(OC)c1 [Entry 138, N-(2-chloro-4,6-dimethoxyphenyl)-7-methyl-2,3-dioxo-1,4-dihydroquinoxaline-6-sulfonamide] | 1.161 | 1.317 | – | – |
| O=C(CSc1nc(=O)c2ccccc2[nH]1)NCc1nc2ccccc2[nH]1 [Entry 97, N-(1H-benzimidazol-2-ylmethyl)-2-[(4-oxo-1H-quinazolin-2-yl)sulfanyl]acetamide] | 1.171 | 1.403 | – | – |
| C=CCNC(=O)c1sc(=S)n2c1[nH]c(=O)c1cc3c(cc12)OCO3 [N-allyl-5-oxo-1-thioxo-4,5-dihydro[1,3]dioxolo[4,5-g][1,3]thiazolo[3,4-a]quinazoline-3-carboxamide] | – | – | – | 3.1 |
| Cc1ccc(-c2nnc(Nc3ccc(OCC(N)=O)cc3)c3ccccc23)cc1S(=O)(=O)NCC1CCCO1 (stereo not drawn) [Entry 56, 2-[4-[[4-[4-methyl-3-(oxolan-2-ylmethylsulfamoyl)phenyl]phthalazin-1-yl]amino]phenoxy]acetamide] | 1.226 | 1.487 | – | – |
| Cc1cc2[nH]c(=O)c(=O)[nH]c2cc1S(=O)(=O)Nc1ccc(OC(F)(F)F)cc1 [Entry 137, 7-methyl-2,3-dioxo-N-[4-(trifluoromethoxy)phenyl]-1,4-dihydroquinoxaline-6-sulfonamide] | 1.12 | 1.301 | – | – |
| O=C(Cn1nc(Cc2ccncc2)c2ccccc2c1=O)N1CC=C(c2ccccc2)CC1 [Entry 209, 2-[2-oxo-2-(4-phenyl-3,6-dihydropyridin-1(2H)-yl)ethyl]-4-(pyridin-4-ylmethyl)phthalazin-1(2H)-one] | 1.093 | 1.274 | – | – |
| Cc1ccc2c(=O)cc(C(=O)Nc3nnc(CC(C)C)s3)oc2c1C [Entry 126, 7,8-dimethyl-N-[5-(2-methylpropyl)-1,3,4-thiadiazol-2-yl]-4-oxochromene-2-carboxamide] | 1.15 | 1.302 | – | – |
| Cc1ccccc1C(=O)Nc1nc2nc(-c3ccccc3)cc(=O)n2[nH]1 [Entry 150, 2-methyl-N-(7-oxo-5-phenyl-1H-[1,2,4]triazolo[1,5-a]pyrimidin-2-yl)benzamide] | 1.19 | 1.577 | – | – |
| Cc1ccc(C)c(NC(=O)c2ccc3c(O)c(S(=O)(=O)c4ccc(Cl)cc4)c(O)nc3c2)c1 [Entry 96, (Z)-3-((4-chlorophenyl)sulfonyl)-N-(2,5-dimethylphenyl)-2,4-dihydroxyquinoline-7-carbimidic acid] | 1.184 | 1.23 | – | – |
| Cc1c2c(=O)n(-c3nc4ccccc4s3)[nH]c2cc(=O)n1Cc1ccc(C(=O)O)cc1 [Entry 177, 4-[[2-(1,3-benzothiazol-2-yl)-4-methyl-3,6-dioxo-1H-pyrazolo[4,3-c]pyridin-5-yl]methyl]benzoic acid] | 1.053 | 1.4 | – | – |
| N#C/C(=C\c1ccc(-c2ccc(Cl)c(C(=O)O)c2)o1)c1nc2ccccc2[nH]1 [Entry 245, 5-[5-[(E)-2-(1H-benzimidazol-2-yl)-2-cyanoethenyl]furan-2-yl]-2-chlorobenzoic acid] | 1.236 | 1.638 | – | – |
| COc1cc(NS(=O)(=O)c2ccc3oc(=O)c4ncn(C)c4c3c2)cc(OC)c1 [Entry 223, N-(3,5-dimethoxyphenyl)-1-methyl-4-oxochromeno[3,4-d]imidazole-8-sulfonamide] | 1.207 | 1.254 | – | – |
| COc1cccc(C(=O)Nc2nc3nc(-c4ccccc4)cc(=O)n3[nH]2)c1 [Entry 140, 3-methoxy-N-(7-oxo-5-phenyl-1H-[1,2,4]triazolo[1,5-a]pyrimidin-2-yl)benzamide] | 1.329 | 1.91 | – | – |
| CCOC(=O)Cc1cc(=O)oc2cc(O)cc(O)c12 [Entry 128, Ethyl (5,7-dihydroxy-2-oxo-2H-chromen-4-yl)acetate] | 1.314 | 1.957 | – | – |
| OCCN(CCO)c1nc(N2CCCCC2)c2nc(N(CCO)CCO)nc(N3CCCCC3)c2n1 [Entry 34, 2,2′,2″,2″′-((4,8-Di(piperidin-1-yl)pyrimido[5,4-d]pyrimidine-2,6-diyl)bis(azanetriyl))tetraethanol] | 1.098 | 1.212 | – | – |
| CC1=C2C(=NC(=O)CC2c2ccc(O)cc2)N(c2ccc3nncn3n2)N1 (stereo not drawn) [Entry 147, 4-(4-hydroxyphenyl)-3-methyl-1-([1,2,4]triazolo[4,3-b]pyridazin-6-yl)-4,5-dihydro-2H-pyrazolo[3,4-b]pyridin-6-one] | 1.118 | 1.243 | – | – |
| O=C(Nc1c(-c2ccccc2)nc2ccccn12)c1ccc(Br)cc1 [Entry 191, 4-bromo-N-(2-phenylimidazo[1,2-a]pyridin-3-yl)benzamide] | 1.225 | 1.296 | – | – |
